# Reference: patent US12295938B2, “Composition for treating castration-resistant prostate cancer, comprising quassinoids” (SAMSUNG LIFE PUBLIC WELFARE FOUNDATION, priority 2019, dated 2025)
# Structures can show the parent of a compound that is named as a salt.
# What was measured:
# [1] = tested on: AR-V7 transcriptional activity; test: MMTV-LUC luciferase reporter assay in 22RV1 cells, DHT− (screening and IC50); assay type: cell-based; settings: 22RV1 cells, no DHT, control = 100
# Experimental: (§1) A library of antimalarial agents was screened using a luciferase reporter assay to measure changes in AR/AR-V7 transcriptional activity.
# (§2) Screening was made primarily with 10 μM of each drug.
# [2] = tested on: AR transcriptional activity; test: MMTV-LUC luciferase reporter assay in 22RV1 cells, DHT+ (screening and IC50); assay type: cell-based; settings: with DHT, control = 100
# Experimental: as §1, §2
Compound,"activity at 10 µM ([1]; Homo sapiens, 10 uM)","activity at 10 µM ([2]; Homo sapiens, 10 uM)",MMTV-LUC activity (%) DHT− ([1]; 10 uM),MMTV-LUC activity (%) DHT+ ([2]; 10 uM),other results
"CC(=O)Oc1cccc2c1C(=O)c1c(OC(C)=O)cc(C(=O)O)cc1C2=O [1,8-Diacetoxy-3-carboxyanthraquinone]",101 ± 8.7%,98.5 ± 2.1%,,,
"O=C1c2cccc(O)c2C(=O)c2c(O)cccc21 [1,8-Dihydroxyanthraquinone]",83.8 ± 2.9%,,,,
"CC1CCCC=CC(=O)c2c(O)cc(O)cc2CC(=O)O1 (stereo not drawn) [10,11-Dehydrocurvularin]",,,16.3 ± 2.5%,5.5 ± 0.6%,MMTV-LUC activity (%) DHT− ([1]; 1 uM): 383.1 ± 24.6%; MMTV-LUC activity (%) DHT+ ([2]; 1 uM): 206.9 ± 15.0%
CC[C@](C)(O)C(=O)O[C@H]1C(=O)O[C@@H]2C[C@H]3C(C)=CC(=O)[C@@H](O)[C@]3(C)[C@H]3[C@@]4(O)OC[C@]32[C@@H]1[C@@H](C)[C@H]4O [(+)-Glaucarubinone],,,107.6 ± 26.5%,117.7 ± 3.5%,
CC(=O)O[C@H](CC=C(C)C)C1=CC(=O)c2c(O)ccc(O)c2C1=O [Acetylshikonin],38.6 ± 3.2%,17.7 ± 1.5%,,,"activity at 1 µM ([1]; Homo sapiens, 1 uM): 103 ± 7.7%; activity at 1 µM ([2]; Homo sapiens, 1 uM): 113 ± 16.6%"
O=C1c2c(O)cccc2C([C@@H]2O[C@H](CO)[C@@H](O)[C@H](O)[C@H]2O)c2cc(CO)cc(O)c21 (stereo partly drawn) [Aloin A],,,108.3 ± 5.0%,,
CCN(CC)Cc1cc(Nc2ccnc3cc(Cl)ccc23)ccc1O [Amodiaquine dihydrochloride dihydrate],91.6 ± 2.9%,102 ± 4.3%,,,
C=C1CC[C@@H]2[C@](C)(CO)[C@H](O)CC[C@@]2(C)[C@@H]1C/C=C1/C(=O)OC[C@H]1O [Andrographolide],157 ± 4.3%,196 ± 5%,,,
CO[C@H]1O[C@@H]2O[C@@]3(C)CC[C@H]4[C@H](C)CC[C@@H]([C@H]1C)[C@@]24OO3 [Artemether],97.5 ± 19.5%,138 ± 8.8%,,,
C[C@@H]1CC[C@H]2[C@@H](C)C(=O)O[C@@H]3O[C@@]4(C)CC[C@@H]1[C@]32OO4 [Artemisinin],107 ± 4.3%,156 ± 17.6%,,,
C[C@H]1[C@H](OC(=O)CCC(=O)O)O[C@@H]2O[C@@]3(C)CC[C@H]4[C@H](C)CC[C@@H]1[C@@]24OO3 [Artesunate],107.6 ± 0.8%,,,,
COc1c(O)cc2c(c1O)C(=O)c1c(cc(C)c(O)c1OC)C2=O [Aurantio-obtusin],119 ± 27.4%,124 ± 2.2%,,,
COC(=O)[C@]12OC[C@]34[C@H]([C@@H](O)[C@@H]1O)[C@@]1(C)CC(=O)C(O)=C(C)[C@@H]1C[C@H]3OC(=O)[C@H](OC(=O)/C=C(\C)C(C)(C)OC(C)=O)[C@@H]24 [Bruceantinol],81.2 ± 62.1%,44.5 ± 2.1%,,,"activity at 1 µM ([1]; Homo sapiens, 1 uM): 73.5 ± 11.9%; activity at 1 µM ([2]; Homo sapiens, 1 uM): 119 ± 21.8%"
COC(=O)[C@]12OC[C@]34[C@H]([C@@H](O)[C@@H]1O)[C@@]1(C)C=C(O[C@@H]5O[C@H](CO)[C@@H](O)[C@H](O)[C@H]5O)C(=O)[C@@H](C)[C@@H]1C[C@H]3OC(=O)[C@H](OC(=O)/C=C(\C)C(C)C)[C@@H]24 [Bruceantinoside A],,,6.5 ± 0.9%,3.8 ± 1.1%,MMTV-LUC activity (%) DHT− ([1]; 0.1 uM): 44.9 ± 5.5%; MMTV-LUC activity (%) DHT− ([1]; 1 uM): 11.5 ± 5.6%; MMTV-LUC activity (%) DHT+ ([2]; 0.1 uM): 61.0 ± 7.3%; MMTV-LUC activity (%) DHT+ ([2]; 1 uM): 8.0 ± 0.2%
CC1=CC(=O)[C@@H](O)[C@]2(C)[C@H]3[C@@H](O)[C@H](O)[C@]4(C)OC[C@@]35[C@@H](C[C@@H]12)OC(=O)[C@H](O)[C@]54O [Bruceine D],,,7.9 ± 1.3%,1.1 ± 0.1%,MMTV-LUC activity (%) DHT− ([1]; 0.1 uM): 46.0 ± 6.4%; MMTV-LUC activity (%) DHT− ([1]; 1 uM): 7.0 ± 1.2%; MMTV-LUC activity (%) DHT+ ([2]; 0.1 uM): 32.6 ± 6.2%; MMTV-LUC activity (%) DHT+ ([2]; 1 uM): 2.0 ± 0.2%
C[C@H]1COC2=C1C(=O)C(=O)c1c2ccc2c1CCCC2(C)C [Cryptotanshinone],70.3 ± 3.2%,62.7 ± 15.3%,,,
CC1CCCCCC(=O)c2c(O)cc(O)cc2CC(=O)O1 (stereo not drawn) [Curvularin],76.8 ± 3%,91.6 ± 9.4%,,,
COC(=O)[C@]12OC[C@@]34[C@@H](CC5=C(C)C(=O)C(O)=C[C@]5(C)[C@H]3[C@@H](O)[C@@H]1O)OC(=O)[C@H](OC(=O)CC(C)C)[C@@H]24 [Dehydrobruceine A],,,133.8 ± 14.5%,164.2 ± 16.0%,
C[C@H]1[C@@H](O)O[C@@H]2O[C@@]3(C)CC[C@H]4[C@H](C)CC[C@@H]1[C@@]24OO3 [Dihydroartemisinin],115 ± 10.1%,138 ± 7%,,,
CNC(=O)c1ccc(N2C(=S)N(c3ccc(C#N)c(C(F)(F)F)c3)C(=O)C2(C)C)cc1F [Enzalutamide],79.4 ± 34.6%,,,,"activity at 1 µM ([1]; Homo sapiens, 1 uM): 87.4 ± 11.3%"
C=C1[C@@H](O)[C@]2(O)OC[C@]34[C@H]2[C@@]2(C)[C@H](O)C(=O)C=C(C)[C@@H]2C[C@H]3OC(=O)[C@H](O)[C@@]14O [Eurycomanone],17.7 ± 2.7%,6.7 ± 0.5%,,,"activity at 0.1 µM ([1]; Homo sapiens, 0.1 uM): 128 ± 12%; activity at 1 µM ([1]; Homo sapiens, 1 uM): 59.1 ± 7.6%; activity at 0.1 µM ([2]; Homo sapiens, 0.1 uM): 108 ± 4.7%; activity at 1 µM ([2]; Homo sapiens, 1 uM): 51.3 ± 4.6%"

Compound,"activity at 10 µM ([1]; Homo sapiens, 10 uM)","activity at 10 µM ([2]; Homo sapiens, 10 uM)",MMTV-LUC activity (%) DHT− ([1]; 10 uM),MMTV-LUC activity (%) DHT+ ([2]; 10 uM),other results
C[C@H](CC(=O)C[C@@H](C)[C@H]1C[C@H](O)[C@@]2(C)C3=C(C(=O)C[C@]12C)[C@@]1(C)CCC(=O)C(C)(C)[C@@H]1C[C@@H]3O)C(=O)O [Ganoderic acid A],,,140.0 ± 3.8%,148.9 ± 2.8%,
CCN(CCO)CCCC(C)Nc1ccnc2cc(Cl)ccc12 (stereo not drawn) [Hydroxychloroquinesulfate],92.3 ± 2%,,,,
C=CC(C)(C)c1cc(/C=C/C(=O)c2ccc(O)cc2)c(OC)cc1O [Licochalcone A],,,202.7 ± 7.1%,235.6 ± 0.2%,
CCCCN(CCCC)CC(O)c1cc(Cl)cc2c1-c1ccc(Cl)cc1/C2=C/c1ccc(Cl)cc1 (stereo not drawn) [Lumefantrine],138 ± 9.5%,,,,
C=CCc1ccc(O)c(-c2cc(CC=C)ccc2O)c1 [Magnolol],130 ± 12%,152 ± 8.6%,,,
COC(=O)c1c2c(c3ccccc3c1O)OC(C)(C)C=C2 [Mollugin],94.7 ± 9.5%,112 ± 11.1%,,,
O=C(Nc1ccc([N+](=O)[O-])cc1Cl)c1cc(Cl)ccc1O [Niclosamide],9.4 ± 0.6%,,,,"activity at 1 µM ([1]; Homo sapiens, 1 uM): 119 ± 10.8%"
O=C(CCc1ccc(O)cc1)c1c(O)cc(O)cc1O[C@@H]1O[C@H](CO)[C@@H](O)[C@H](O)[C@H]1O [Phlorizin],154 ± 6.6%,184 ± 12.6%,,,
CC1=CC(=O)c2c(O)cccc2C1=O [Plumbagin],26 ± 7.6%,7.1 ± 0.1%,,,"activity at 1 µM ([1]; Homo sapiens, 1 uM): 215 ± 16.1%; activity at 1 µM ([2]; Homo sapiens, 1 uM): 143 ± 27.5%"
CCc1nc(N)nc(N)c1-c1ccc(Cl)cc1 [Pyrimethamine],130.5 ± 0.2%,,,,
COC1=C[C@@H](C)[C@@H]2C[C@H]3OC(=O)C[C@H]4C(C)=C(OC)C(=O)[C@H]([C@@]2(C)C1=O)[C@@]34C [Quassin],110 ± 9%,120 ± 5.6%,,,
O=C(O)c1cc(O)c2c(c1)C(=O)c1cccc(O)c1C2=O [Rhein],83 ± 9.2%,,,,
O=C(O)c1cc(O)c2c(c1)[C@H]([C@H]1c3cc(C(=O)O)cc(O)c3C(=O)c3c(O[C@@H]4O[C@H](CO)[C@@H](O)[C@H](O)[C@H]4O)cccc31)c1cccc(O[C@@H]3O[C@H](CO)[C@@H](O)[C@H](O)[C@H]3O)c1C2=O [Sennoside A],,,105.5 ± 4.4%,,
COc1ncnc(NS(=O)(=O)c2ccc(N)cc2)c1OC [Sulfadoxine],116 ± 4.4%,,,,
CC1=CC(=O)[C@@H](O)[C@]2(C)[C@H]3[C@@H](O)[C@H](O)[C@]4(CO)OC[C@@]35[C@@H](C[C@@H]12)OC(=O)[C@H](O)[C@]54O [Yadanziolide A],,,8.0 ± 0.6%,4.1 ± 0.2%,MMTV-LUC activity (%) DHT− ([1]; 1 uM): 54.1 ± 13.0%; MMTV-LUC activity (%) DHT+ ([2]; 1 uM): 58.3 ± 10.9%
CC1=CC(=O)[C@@H](O)[C@@]2(C)[C@H]1[C@@H](O)[C@H]1OC(=O)[C@H](O)[C@]3(O)[C@]14CO[C@]3(CO)[C@@H](O)[C@H](O)[C@H]24 [Yadanziolide B],,,8.2 ± 1.0%,4.0 ± 0.5%,MMTV-LUC activity (%) DHT− ([1]; 0.1 uM): 23.1 ± 5.2%; MMTV-LUC activity (%) DHT− ([1]; 1 uM): 7.2 ± 0.8%; MMTV-LUC activity (%) DHT+ ([2]; 0.1 uM): 32.8 ± 9.0%; MMTV-LUC activity (%) DHT+ ([2]; 1 uM): 4.2 ± 0.4%
COC(=O)[C@]12OC[C@]34[C@H]([C@@H](O)[C@@H]1O)[C@@]1(C)C=C(O[C@@H]5O[C@H](CO)[C@@H](O)[C@H](O)[C@H]5O)C(=O)[C@@H](C)[C@@H]1C[C@H]3OC(=O)[C@H](OC(=O)/C=C(\C)C(C)(C)O)[C@@H]24 [Yadanzioside C],,,110.4 ± 11.6%,5.8 ± 0.7%,MMTV-LUC activity (%) DHT− ([1]; 1 uM): 118.9 ± 18.1%; MMTV-LUC activity (%) DHT+ ([2]; 1 uM): 55.6 ± 0.7%
COC(=O)[C@]12OC[C@]34[C@H]([C@@H](O)[C@@H]1O)[C@@]1(C)C=C(O[C@@H]5O[C@H](CO)[C@@H](O)[C@H](O)[C@H]5O)C(=O)[C@@H](C)[C@@H]1C[C@H]3OC(=O)[C@H](OC(C)=O)[C@@H]24 [Yadanzioside F],,,133.6 ± 21.7%,139.5 ± 11.0%,
COC(=O)[C@]12OC[C@]34[C@H]([C@@H](O)[C@@H]1O)[C@@]1(C)CC(=O)C(O[C@@H]5O[C@H](CO)[C@@H](O)[C@H](O)[C@H]5O)=C(C)[C@@H]1C[C@H]3OC(=O)[C@H](OC(C)=O)[C@@H]24 [Yadanzioside I],,,123.2 ± 10.4%,136.0 ± 7.1%,
"CC(C)=CC[C@H](OC(=O)C=C(C)C)C1=CC(=O)c2c(O)ccc(O)c2C1=O [β, β-Dimethylacrylalkannin]",,,33.3 ± 3.2%,19.9 ± 3.5%,MMTV-LUC activity (%) DHT− ([1]; 1 uM): 100.2 ± 11.4%; MMTV-LUC activity (%) DHT+ ([2]; 1 uM): 107.9 ± 7.0%
Bruceanic acid C,,,68.5 ± 6.3%,85.8 ± 14.2%,
